Paper PMC10465125 (eLife, 2023)
Like-named read-outs stand apart in the source and are kept apart here.

Assays:
[1] = target: SARS-CoV-2 Spike RBD / human ACE2 interaction (UniProt P0DTC2+Q9BYF1); test: Spike protein–ACE2 interaction ELISA assay; type: binding, SARS-CoV-2; human; conditions: doses 0, 50, 100 μg/ml (method b11 says μM), Figure 1A
SARS-CoV-2 Mpro = target: T1, SARS-CoV-2 Mpro (Severe acute respiratory syndrome coronavirus 2, UniProt P0DTD1); type: biochemical
T1 construct: the main protease (M^pro/3CL^pro), a chymotrypsin-like protease

human TMPRSS2 = target: T2, human TMPRSS2 (Homo sapiens, UniProt O15393); test: Cell-based TMPRSS2 enzyme activity assay (293T-TMPRSS2 cells, Boc-QAR-AMC)
T2 construct: Flag; host or cells: 293T

[2] = Cytotoxicity assay (MTT), 293T-ACE2; type: cell-based; conditions: human, tested concentrations given in μg/ml, read-out: CC50 (median cytotoxic concentration)
Procedure: (§1) The human embryonic kidney cells 293T stably expressing recombinant human ACE2 (293T-ACE2) were maintained in DMEM containing 10% FBS, 1% P/S, and […] hygromycin. The NCI-H460 cell line (human non-small cell lung cancer cells) was preserved in Modified Eagle’s Medium (MEM, Gibco, USA) supplemented with 10% FBS and 1% P/S. The VeroE6 cell line (African green monkey kidney cells) was grown in Dulbecco’s Modified Eagle’s Medium (DMEM, Gibco) supplemented with 10% fetal bovine serum (FBS, Gibco), 1× GlutaMAX (Gibco), and 1% penicillin/streptomycin (P/S, Hyclone, USA). All these cells were cultured at 37°C and 5% CO2. All cell lines are checked annually for mycoplasma contamination, and human cell lines were authenticated through STR profiling.
(§2) […]. The medium was removed, and viable cells were detected with MTT assay (Cyrusbioscience, Taiwan), which was read by absorbance at 570 nm by an ELISA reader. All experiments were performed independently in triplicates and repeated three times.

[3] = Cytotoxicity assay (MTT), NCI-H460; type: cell-based; conditions: human, tested concentrations given in μg/ml, read-out: CC50 (median cytotoxic concentration)
Procedure: as §1, §2

[4] = Cytotoxicity assay (MTT), VeroE6; type: cell-based; conditions: African green monkey, tested concentrations given in μg/ml, read-out: CC50 (median cytotoxic concentration)
Procedure: as §1, §2

[5] = tested on: SARS-CoV-2 wild-type Spike Vpps; design: EC50 (inhibition of SARS-CoV-2 Vpp infection by 50%): unit not given beside the values
[6] = tested on: wild-type SARS-CoV-2 Spike Vpps; test: microbe, parasite or virus in culture; conditions: Severe acute respiratory syndrome coronavirus 2, 293T/ACE2, read-out: EC50 (inhibition of SARS-CoV-2 Vpp infection by 50%)
[7] = tested on: wild-type SARS-CoV-2 Spike Vpps; test: microbe, parasite or virus in culture; conditions: Severe acute respiratory syndrome coronavirus 2, NCI-H460, read-out: EC50 (inhibition of SARS-CoV-2 Vpp infection by 50%)
[8] = tested on: SARS-CoV-2 wild-type Spike Vpps; test: microbe, parasite or virus in culture; conditions: Severe acute respiratory syndrome coronavirus 2, Vero C1008, read-out: EC50 (inhibition of SARS-CoV-2 Vpp infection by 50%)
[9] = tested on: SARS-CoV-2 wild-type Spike Vpps; test: microbe, parasite or virus in culture; conditions: Severe acute respiratory syndrome coronavirus 2, VeroE6/TMPRSS2, read-out: EC50 (inhibition of SARS-CoV-2 Vpp infection by 50%)
Mpro of SARS-CoV-2 = conditions: in vitro analysis; ref Zhu and Xie, 2020; cited from earlier work

T2 sequence (O15393 whole entry): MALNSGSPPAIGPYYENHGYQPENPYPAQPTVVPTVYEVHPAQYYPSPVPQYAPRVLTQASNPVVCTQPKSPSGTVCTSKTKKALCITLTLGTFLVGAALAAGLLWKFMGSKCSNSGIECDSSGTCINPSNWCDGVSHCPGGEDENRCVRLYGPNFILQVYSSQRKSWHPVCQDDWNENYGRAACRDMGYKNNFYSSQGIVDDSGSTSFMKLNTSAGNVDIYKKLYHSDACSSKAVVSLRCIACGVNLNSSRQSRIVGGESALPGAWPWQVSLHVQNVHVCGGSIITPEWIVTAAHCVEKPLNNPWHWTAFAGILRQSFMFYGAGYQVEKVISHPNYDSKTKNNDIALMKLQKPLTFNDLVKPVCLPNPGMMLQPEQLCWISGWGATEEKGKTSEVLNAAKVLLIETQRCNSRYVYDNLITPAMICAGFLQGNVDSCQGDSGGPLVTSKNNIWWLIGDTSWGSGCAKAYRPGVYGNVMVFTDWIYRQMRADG

## O=C1O[C@H]2[C@@H]3OC(=O)c4cc(O)c(O)c(O)c4-c4c(O)c(O)c5oc(=O)c6c(c(O)c(O)c7oc(=O)c4c5c76)-c4c(cc(O)c(O)c4O)C(=O)OC[C@H]3OC(O)[C@@H]2OC(=O)c2cc(O)c(O)c(O)c2-c2c1cc(O)c(O)c2O (mixture of isomers) [Punicalagin, punicalagin]
[1]
  inhibitory activity against the Spike protein–ACE2 interaction: highest inhibitory activity
SARS-CoV-2 Mpro
  inhibition of Mpro enzymatic activity: even stronger inhibitory activity on M^pro than tannic acid and OPCs
Human TMPRSS2
  IC50: 31.9 µM
Human TMPRSS2; Figure 1C, in words
  inhibitory activity on TMPRSS2: only moderate inhibitory activity
[2]
  CC50 at 24 h: 606 ± 61.1 µg/mL
[3]
  CC50 at 24 h: 88.4 ± 6.76 µg/mL
[4]
  CC50 at 24 h: 84.7 ± 5.55 µg/mL
[5]
  SI (ratio of CC50 to EC50): 15.49
[6]
  EC50: 3.7 ± 2.24 µg/mL
[7]
  EC50: 4.65 ± 0.47 µg/mL
[8]
  EC50: 5.47 ± 1.27 µg/mL
[9]
  EC50: 5.8 ± 1.74 µg/mL

## Oc1cc(O)c2c(c1)O[C@H](c1ccc(O)c(O)c1)[C@H](O)[C@H]2c1c(O)cc(O)c2c1O[C@H](c1ccc(O)c(O)c1)[C@H](O)C2 [PB2, procyanidin B2]
Mpro of SARS-CoV-2
  IC50: 75.3 ± 1.29 µM

## tannic acid [reference compound]
[5]
  EC50 (inhibition of SARS-CoV-2 Vpp infection by 50%): 6.91±0.63
